Reference: ChEMBL document CHEMBL1201862, “PubChem BioAssay data set” (2004)
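In this assay, cells in 96-well plates receive the compound at five concentrations for 48 hours. Endpoints are linearly interpolated between the surrounding concentrations. GI50 is the concentration that inhibits growth by half.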 Calls of active or inactive are those of the source. Cut-off read from the data, not from the text of the source: active = GI50 up to about 1.1 µM and inactive = higher.

Legend:
Experiment in all cases: NCI anticancer screen, dose series, 48 h
[1] = system: DMS-114
[2] = system: KM-20L2
[3] = system: M19-MEL
[4] = system: HOP-18
[5] = system: LXFL 529
[6] = system: DLD-1
[7] = system: RXF 631
[8] = system: DMS-273
[9] = system: SNB-78

COC(=O)c1ccc(/C=C2\N=C(C)OC2=O)cc1 was tested, and the GI50 [1] was > 100 µM (inactive), the GI50 [2] was > 100 µM (inactive) and the GI50 [3] was > 100 µM (inactive). For the same molecule, the GI50 [4] was > 100 µM (inactive), the GI50 [5] was > 100 µM (inactive) and the GI50 [6] was > 100 µM (inactive). For the same molecule, the GI50 [7] was > 100 µM (inactive) and the GI50 [8] was > 100 µM (inactive).
With O=CCCn1[nH]c(=O)ccc1=O the GI50 [1] was > 100 µM (inactive), the GI50 [2] was > 100 µM (inactive) and the GI50 [3] was > 100 µM (inactive). For the same molecule, the GI50 [6] was > 100 µM (inactive), the GI50 [9] was > 100 µM (inactive) and the GI50 [8] was > 100 µM (inactive).
For CNc1ccccc1-c1nc2ccccc2c(=O)o1, the GI50 [1] was > 100 µM (inactive), the GI50 [2] was > 100 µM (inactive) and the GI50 [3] was > 100 µM (inactive). For the same molecule, the GI50 [4] was > 100 µM (inactive), the GI50 [5] was > 100 µM (inactive) and the GI50 [6] was > 100 µM (inactive). The GI50 [7] was > 100 µM (inactive), the GI50 [9] was 55.3 µM (inactive) and the GI50 [8] was > 100 µM (inactive).
For Nc1n[nH]c(CCCCCCCc2nnc(N)[nH]2)n1, the GI50 [1] was > 100 µM (inactive), the GI50 [3] was > 100 µM (inactive) and the GI50 [5] was > 100 µM (inactive). The GI50 [6] was > 100 µM (inactive) and the GI50 [9] was > 100 µM (inactive).
In the case of COc1ccc(/C(Cl)=C(\C=O)c2ccc(OC)cc2)cc1, the GI50 [1] was > 100 µM (inactive), the GI50 [2] was > 100 µM (inactive) and the GI50 [3] was 93.3 µM (inactive). For the same molecule, the GI50 [4] was 63.8 µM (inactive), the GI50 [5] was > 100 µM (inactive) and the GI50 [6] was 33.2 µM (inactive). For the same molecule, the GI50 [7] was 58.3 µM (inactive), the GI50 [9] was > 100 µM (inactive) and the GI50 [8] was 37 µM (inactive).
With CSCC(CO)NC(=O)/C=C/c1c(C)[nH]c(=O)[nH]c1=O (stereo not given) the GI50 [1] was 164 µM (inactive), the GI50 [2] was 415 µM (inactive) and the GI50 [3] was 478 µM (inactive). For the same molecule, the GI50 [4] was > 875 µM (inactive), the GI50 [6] was 512 µM (inactive) and the GI50 [9] was > 853 µM (inactive). For the same molecule, the GI50 [8] was > 838 µM (inactive).
For CCOC(=O)/C=C1/Oc2ccccc2C1(C)O (stereo not given), the GI50 [1] was > 100 µM (inactive), the GI50 [2] was > 100 µM (inactive) and the GI50 [3] was > 100 µM (inactive). The GI50 [4] was > 100 µM (inactive), the GI50 [5] was > 100 µM (inactive) and the GI50 [6] was > 100 µM (inactive). For the same molecule, the GI50 [9] was > 100 µM (inactive) and the GI50 [8] was > 100 µM (inactive).
For CN(C)C(=O)C1CCC(=C2C(=O)OC(C)(C)OC2=O)N1C (stereo not given), the GI50 [1] was > 100 µM (inactive), the GI50 [2] was > 100 µM (inactive) and the GI50 [3] was > 100 µM (inactive). For the same molecule, the GI50 [4] was > 100 µM (inactive), the GI50 [5] was > 100 µM (inactive) and the GI50 [6] was > 100 µM (inactive). For the same molecule, the GI50 [9] was > 100 µM (inactive) and the GI50 [8] was > 100 µM (inactive).
In the case of CC1OC(O)CC(OC(=O)c2ccccc2)C1OC(=O)c1ccccc1 (stereo not given), the GI50 [2] was 66.2 µM (inactive), the GI50 [3] was 17.5 µM (inactive) and the GI50 [4] was 26.3 µM (inactive). The GI50 [5] was 16.2 µM (inactive), the GI50 [6] was 14.3 µM (inactive) and the GI50 [8] was 14.5 µM (inactive).
With CC(C)=CC(=O)OC1C2C(C)=CC(O)C(O)C2(C)C2C3(O)OCC24C(CC(=O)OC14)C(C)C3O (stereo not given) the GI50 [1] was 0.0162 µM (active), the GI50 [2] was 0.354 µM (active) and the GI50 [3] was 0.034 µM (active). The GI50 [4] was 1.11 µM (active), the GI50 [6] was 0.0716 µM (active) and the GI50 [9] was 0.272 µM (active). For the same molecule, the GI50 [8] was 0.0264 µM (active).
With N[C@@H](CSCSC[C@H](N)C(=O)O)C(=O)O the GI50 [1] was > 225 µM (inactive), the GI50 [2] was > 164 µM (inactive) and the GI50 [3] was > 225 µM (inactive). The GI50 [4] was > 225 µM (inactive), the GI50 [6] was > 225 µM (inactive) and the GI50 [9] was 126 µM (inactive). The GI50 [8] was > 225 µM (inactive).
